In ChEMBL document CHEMBL1152871, “Synthesis of citrate-ciprofloxacin conjugates” (2009):

Assays:
Format in all cases: functional
Pseudomonas aeruginosa [1] = assay: Antimicrobial activity against Pseudomonas aeruginosa NCTC 6749 at 5 ug/disk after 18 to 20 hrs by disk diffusion assay; details: read-out: IZ
Staphylococcus aureus [2] = assay: Antimicrobial activity against ciprofloxacin and epidemic methicillin-resistant Staphylococcus aureus BIG 0052 at 5 ug/disk after 18 to 20 hrs by disk diffusion assay; details: read-out: IZ
Escherichia coli [3] = assay: Antimicrobial activity against ciprofloxacin-resistant Escherichia coli BIG 0046 at 5 ug/disk after 18 to 20 hrs by disk diffusion assay; details: read-out: IZ
Escherichia coli [4] = assay: Antimicrobial activity against ciprofloxacin-resistant Escherichia coli BIG 0051 at 5 ug/disk after 18 to 20 hrs by disk diffusion assay; details: read-out: IZ
Pseudomonas aeruginosa [5] = assay: Antimicrobial activity against Pseudomonas aeruginosa NCTC 10662 at 5 ug/disk after 18 to 20 hrs by disk diffusion assay; details: read-out: IZ
Escherichia coli [6] = assay: Antimicrobial activity against Escherichia coli NCTC 10418 at 5 ug/disk after 18 to 20 hrs by disk diffusion assay; details: read-out: IZ
[7] = test system: Staphylococcus haemolyticus; assay: Antimicrobial activity against Staphylococcus haemolyticus NCTC 11042 at 5 ug/disk after 18 to 20 hrs by disk diffusion assay; details: read-out: IZ
Burkholderia cepacia = assay: Antimicrobial activity against Burkholderia cepacia NCTC 10744 at 5 ug/disk after 18 to 20 hrs by disk diffusion assay; details: read-out: IZ
[8] = test system: Staphylococcus epidermidis; assay: Antimicrobial activity against Staphylococcus epidermidis NCTC 2749 at 5 ug/disk after 18 to 20 hrs by disk diffusion assay; details: read-out: IZ
Staphylococcus aureus [9] = assay: Antimicrobial activity against ciprofloxacin and methicillin-resistant Staphylococcus aureus HG-1 at 5 ug/disk after 18 to 20 hrs by disk diffusion assay; details: read-out: IZ
Staphylococcus aureus [10] = assay: Antimicrobial activity against Staphylococcus aureus NCTC 6571 at 5 ug/disk after 18 to 20 hrs by disk diffusion assay; details: read-out: IZ
Staphylococcus aureus [11] = assay: Antimicrobial activity against Staphylococcus aureus NCTC 10399 at 5 ug/disk after 18 to 20 hrs by disk diffusion assay; details: read-out: IZ
Serratia marcescens = assay: Antimicrobial activity against Serratia marcescens NCTC 1377 at 5 ug/disk after 18 to 20 hrs by disk diffusion assay; details: read-out: IZ
Staphylococcus aureus [12] = assay: Antimicrobial activity against epidemic methicillin-resistant Staphylococcus aureus NCTC 13142 at 5 ug/disk after 18 to 20 hrs by disk diffusion assay; details: read-out: IZ
Pseudomonas aeruginosa [13] = assay: Antimicrobial activity against Pseudomonas aeruginosa BIG 0063 at 5 ug/disk after 18 to 20 hrs by disk diffusion assay; details: read-out: IZ
[14] = test system: Staphylococcus epidermidis; assay: Antimicrobial activity against Staphylococcus epidermidis NCTC 11047 at 5 ug/disk after 18 to 20 hrs by disk diffusion assay; details: read-out: IZ
Staphylococcus aureus [15] = assay: Antimicrobial activity against ciprofloxacin and epidemic methicillin-resistant Staphylococcus aureus NCTC 13143 at 5 ug/disk after 18 to 20 hrs by disk diffusion assay; details: read-out: IZ
Pseudomonas aeruginosa [16] = assay: Antimicrobial activity against Pseudomonas aeruginosa BIG 0037 at 5 ug/disk after 18 to 20 hrs by disk diffusion assay; details: read-out: IZ
Pseudomonas aeruginosa [17] = assay: Antimicrobial activity against Pseudomonas aeruginosa BIG 0039 at 5 ug/disk after 18 to 20 hrs by disk diffusion assay; details: read-out: IZ
Escherichia coli [18] = assay: Antimicrobial activity against wild-type Escherichia coli K-12 BW-25113 at 0.15 ug after overnight incubation in presence of 1 uM Fe3-cation
Escherichia coli [19] = assay: Antimicrobial activity against isogenic Escherichia coli K-12 […] mutant at 0.15 ug after overnight incubation in presence of 1 uM Fe3-cation
Escherichia coli [20] = assay: Antimicrobial activity against wild-type Escherichia coli K-12 BW-25113 at 0.15 ug after overnight incubation in presence of 1000 uM Fe3-cation
Escherichia coli [21] = assay: Antimicrobial activity against isogenic Escherichia coli K-12 […] mutant at 0.15 ug after overnight incubation in presence of 1000 uM Fe3-cation

| Compound | zone of inhibition at 5 µg/disc (Pseudomonas aeruginosa [1]) [mm] | zone of inhibition at 5 µg/disc (Staphylococcus aureus [2]) [mm] | zone of inhibition at 5 µg/disc (Escherichia coli [3]) [mm] | zone of inhibition at 5 µg/disc (Escherichia coli [4]) [mm] | zone of inhibition at 5 µg/disc (Pseudomonas aeruginosa [5]) [mm] | zone of inhibition at 5 µg/disc (Escherichia coli [6]) [mm] | zone of inhibition at 5 µg/disc [7] [mm] | zone of inhibition at 5 µg/disc (Burkholderia cepacia) [mm] | zone of inhibition at 5 µg/disc [8] [mm] | zone of inhibition at 5 µg/disc (Staphylococcus aureus [9]) [mm] | zone of inhibition at 5 µg/disc (Staphylococcus aureus [10]) [mm] | zone of inhibition at 5 µg/disc (Staphylococcus aureus [11]) [mm] | zone of inhibition at 5 µg/disc (Serratia marcescens) [mm] | zone of inhibition at 5 µg/disc (Staphylococcus aureus [12]) [mm] | zone of inhibition at 5 µg/disc (Pseudomonas aeruginosa [13]) [mm] | zone of inhibition at 5 µg/disc [14] [mm] | zone of inhibition at 5 µg/disc (Staphylococcus aureus [15]) [mm] | zone of inhibition at 5 µg/disc (Pseudomonas aeruginosa [16]) [mm] | zone of inhibition at 5 µg/disc (Pseudomonas aeruginosa [17]) [mm] | other results |
| --- | --- | --- | --- | --- | --- | --- | --- | --- | --- | --- | --- | --- | --- | --- | --- | --- | --- | --- | --- | --- |
| O=C(O)c1cn(C2CC2)c2cc(N3CCNCC3)c(F)cc2c1=O [CIPROFLOXACIN] | 35 | 0 | 0 | 0 | 31 | 32 | 25 | 22 | 29 | 0 | 24 | 27 | 30 | 22 | 32 | 25 | 0 | 31 | 27 | – |
| O=C(O)CC(O)(CC(=O)O)C(=O)N1CCN(c2cc3c(cc2F)c(=O)c(C(=O)O)cn3C2CC2)CC1 | – | 0 | 0 | 0 | – | 27 | 20 | 18 | 24 | 0 | 20 | 23 | 25 | 21 | 24 | 21 | 0 | 24 | – | – |
| O=C(O)CC(O)(CC(=O)N1CCN(c2cc3c(cc2F)c(=O)c(C(=O)O)cn3C2CC2)CC1)C(=O)O (centres undefined) | 23 | 0 | 0 | 0 | 23 | 30 | 30 | 18 | 28 | 0 | 17 | 20 | – | – | – | 28 | – | 25 | 18 | inhibition zone (IZ) (Escherichia coli [18]): 1.1 cm; inhibition zone (IZ) (Escherichia coli [19]): 0.6 cm; inhibition zone (IZ) (Escherichia coli [20]): 1.3 cm; inhibition zone (IZ) (Escherichia coli [21]): 0.8 cm |
